Measurements published in ChEMBL document CHEMBL1135832, “Syntheses, calcium channel agonist-antagonist modulation activities, nitric oxide release, and voltage-clamp studies of 2-nitrooxyethyl 1,4-dihydro- 2,6-dimethyl-3-nitro-4-(2-trifluoromethylphenyl)pyridine-5-carboxylate enantiomers” (J Med Chem, 2002).

Assays:
Assay type in all cases: functional
Cavia porcellus [1] = species on record: Cavia porcellus; assay: In vitro NO ([…]) release by nitrite quanititation using Griess reaction
Cavia porcellus [2] = species on record: Cavia porcellus; assay: In vitro calcium channel modulating activity in guinea pig left atrium (GPLA); conditions: Cardiac atrium
Cavia porcellus [3] = species on record: Cavia porcellus; assay: In vitro NO ([…]) release by nitrite quanititation using Griess reaction in presence of N-acetyl-cysteamine
Cavia porcellus [4] = species on record: Cavia porcellus; assay: In vitro NO ([…]) release by nitrite quanititation using Griess reaction without N-acetyl-cysteamine

Row | IC50 (Cavia porcellus [2]) [µM] | SMILES | % of NO release (Cavia porcellus [1]) | % of NO release (Cavia porcellus [3]) | % of NO release (Cavia porcellus [4])
1 | – | CC1=NC(C)=C([N+](=O)[O-])[C@@H](c2ccccc2C(F)(F)F)/C1=C(\O)OCCO[N+](=O)[O-] | 1.09 | – | –
2 | 16 | CC1=NC(C)=C([N+](=O)[O-])[C@H](c2ccccc2C(F)(F)F)/C1=C(\O)OCCO[N+](=O)[O-] | 2.7 | – | –
3 | – | O=[N+]([O-])OCC(CO[N+](=O)[O-])O[N+](=O)[O-] [NITROGLYCERIN] | – | 5.3 | 0.18
